Entries after “also recorded” stand apart in the source; their conditions may differ.
Assays:
TRPM8 [1] = molecular target: T1, TRPM8 (Homo sapiens, UniProt Q7Z2W7); assay: MVEC gene expression (ET1, NOS3, PTGIS mRNA) by qPCR after TRPM8 activation; assay type: cell-based
T1 construct: Human MVEC express functional TRPM8; endogenous in cells; host or cells: human microvascular endothelial cells (normal MVEC and SSc-MVEC)
Description: FIGS. 4A-4C: Effects of cold exposure on ET1 (FIG. 4A), NOS3 (FIG. 4B), and PTGIS (FIG. 4C) mRNA expression. Normal MVECs were exposed to 18° C. temperature for 1 hr. The mRNA expression levels were measured by qPCR.
FIGS. 5A-5C: Effects of Menthol on ET1 (FIG. 5A), NOS3 (FIG. 5B), and PTGIS (FIG. 5C) mRNA expression. Normal endothelial cells were treated with menthol (MT) at 20 μM, 100 μM, and 500 μM with and without capsazepine (CapZ) for 24 hours. The mRNA expression levels were measured by qPCR.
The effect of exposure of normal MVEC to […] on MVEC gene expression was evaluated. Specifically, gene expression levels of NOS3, PTGIS, and ET1 in MVEC were evaluated in response to TRPM8 activation by cold exposure (FIGS. 4A-4C) and menthol (FIGS. 5A-5C) with and without Capsazepine, which is one of the TRPM8 receptor inhibitors.
Thus, the use of TRPM8 antagonists can be an effective strategy for treatment Raynaud's phenomenon in SSc patients.

TRPM8 [2] = molecular target: T1, TRPM8; assay: Intracellular calcium (Ca2+ influx) in MVEC, Fluo-4AM microfluorometry; assay type: cell-based
Description: FIG. 2: Pharmacological activation of TRPM8 in human microvascular endothelial cells. […] ATP was used as the positive control.
FIG. 3: Effects of menthol on intracellular calcium level in NL-MVECs and SSc-MVECs. Cells were loaded with 2 μM calcium indicator dye Fluo-4AM for 1 hour and treated with menthol with and without capsazepine for 10 minutes and then observed under microscope.
To evaluate the functional role of TRPM8 in MVECs, the intracellular calcium ([Ca^2+]) influx into MVEC by Ca^2+ was evaluated by microfluorometry studies in response to the addition of menthol or exposure to cold, which are known to activate TRPM8 (FIG. 2).
The effect of menthol is abrogated by the use of Capsazepine, a TRPM8 receptor inhibitor. These findings indicate that TRPM8 mediates functional effects in MVEC that are mediated by calcium influx, which is antagonized by the use of Capsazepine.

[3] = Storage stability of capsazepine; assay type: physicochemical; conditions: long term storage recommended at −20° C.
[4] = tested on: patients with Raynaud's phenomenon; assay: Cold challenge test with infrared thermography of digital blood flow after topical application; assay type: in vivo, human
Text: A FLIR thermography system (Wilsonville, Oreg.) was used to evaluate blood flow in the digits in response to a cold challenge test in addition to PPG. The advantage of combining the two modalities is that both (i) a dynamic assessment of blood flow in the hands as reflected by changes in temperature in response to cold challenge tests, as well as (ii) the ability to obtain single point measurements, can be achieved.
FIGS. 8A-8B show the local application of econazole to the left index finger, and clotrimazole to the ring finger, for 15 minutes before cold exposure (FIG. 8A). […] Note the red color that depicts higher temperature of skin on the left index finger in the right panel of FIG. 8B.
Gel formulations of 3% econazole and 3% clotrimazole were prepared, then applied to the index and ring fingers (respectively) of the left hand of patients with Raynaud's phenomenon. The topical application was left for 15 minutes on the fingers, before inducing Raynaud's phenomenon by a cold challenge test. The digital blood flow was analyzed by infrared thermography.

[5] = activation of TRPM8 in MVEC by cold temperature or by menthol, qPCR

T1 sequence (Q7Z2W7 whole entry): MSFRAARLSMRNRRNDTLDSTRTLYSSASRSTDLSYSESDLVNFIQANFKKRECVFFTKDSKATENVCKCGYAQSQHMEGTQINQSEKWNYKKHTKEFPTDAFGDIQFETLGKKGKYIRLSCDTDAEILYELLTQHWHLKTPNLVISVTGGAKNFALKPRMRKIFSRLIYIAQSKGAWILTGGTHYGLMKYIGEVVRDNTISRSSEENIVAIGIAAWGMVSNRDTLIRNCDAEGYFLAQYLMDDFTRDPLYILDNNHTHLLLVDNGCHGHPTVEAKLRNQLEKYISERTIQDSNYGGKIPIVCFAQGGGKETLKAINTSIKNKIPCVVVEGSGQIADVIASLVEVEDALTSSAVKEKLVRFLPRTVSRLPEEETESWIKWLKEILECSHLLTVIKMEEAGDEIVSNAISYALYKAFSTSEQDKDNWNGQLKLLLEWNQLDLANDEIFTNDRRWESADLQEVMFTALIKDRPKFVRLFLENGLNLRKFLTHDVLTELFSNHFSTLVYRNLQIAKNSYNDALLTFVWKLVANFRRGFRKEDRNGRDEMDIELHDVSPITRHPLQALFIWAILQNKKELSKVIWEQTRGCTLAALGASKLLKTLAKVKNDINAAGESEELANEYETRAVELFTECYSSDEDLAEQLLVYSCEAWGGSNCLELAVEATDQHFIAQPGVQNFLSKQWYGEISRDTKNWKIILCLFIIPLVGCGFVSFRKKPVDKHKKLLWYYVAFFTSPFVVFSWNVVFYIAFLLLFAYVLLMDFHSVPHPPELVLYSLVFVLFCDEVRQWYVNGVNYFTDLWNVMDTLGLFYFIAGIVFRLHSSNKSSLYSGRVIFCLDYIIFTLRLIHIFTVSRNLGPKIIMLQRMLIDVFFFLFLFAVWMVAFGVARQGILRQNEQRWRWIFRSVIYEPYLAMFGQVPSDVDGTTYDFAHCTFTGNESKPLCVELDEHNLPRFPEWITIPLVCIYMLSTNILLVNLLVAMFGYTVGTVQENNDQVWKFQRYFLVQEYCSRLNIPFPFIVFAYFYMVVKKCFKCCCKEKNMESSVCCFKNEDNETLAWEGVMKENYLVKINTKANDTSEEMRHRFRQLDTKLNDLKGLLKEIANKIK

CC1CCC(C(C)C)C(O)C1 (centres unmarked) [menthol]
NOS3 expression reduction (TRPM8 [1]; [5]): 62% | PTGIS expression reduction (TRPM8 [1]; [5]): 61% | increase in expression of ET1 (TRPM8 [1]; [5]): 2.4 folds | Ca2+ influx in MVEC (TRPM8 [2]; 500 μM/L menthol, human microvascular endothelial cells): increase in Ca^2+ influx | intracellular calcium levels (TRPM8 [2]; SSc MVEC and healthy MVEC, Fluo-4AM, 10 minutes): increases intracellular calcium levels

Oc1cc2c(cc1O)CN(C(=S)NCCc1ccc(Cl)cc1)CCC2 [capsazepine]
stability at room temperature [3]: not stable at room temperature | effect on cold/menthol-induced changes of ET1, NOS3 and PTGIS expression (TRPM8 [1]; MVEC, addition of TRPM8 antagonist): normalization of gene expression levels; also recorded: reversed; also recorded: near normalization | effect on menthol-induced intracellular calcium increase (TRPM8 [2]; menthol with capsazepine, 10 minutes, NL-MVECs and SSc-MVECs): abrogated

Clc1ccc(COC(Cn2ccnc2)c2ccc(Cl)cc2Cl)cc1 (centres unmarked) [econazole]
cold induced decrease in blood flow to the fingers ([4]; 3% gel on left index finger, 15 minutes before cold challenge, infrared thermography): prevented the cold induced decrease in blood flow | subjective feeling of finger coldness by patient report ([4]; after topical application and cold challenge): less finger coldness | finger temperature in thermal image after cold exposure ([4]; local application to left index finger for 15 minutes before cold exposure): warmer than the other fingers
